Test results: publication PMC5608556, “Photo-affinity labelling and biochemical analyses identify the target of trypanocidal simplified natural product analogues” (PLoS Neglected Tropical Diseases, 2017)
Like-named read-outs stand apart in the source and are kept apart here.

What was measured:
[1] = tested on: ATP production (oxidative phosphorylation) in digitonin-permeabilised PF T. brucei; test: ATP production assay in digitonin-permeabilised cells; format: cell-based, Trypanosoma brucei; conditions: for Effect on ATP production from succinate: succinate 2.5 mM as substrate
Description: We next sought to identify the point at which ATP production was blocked using digitonin-permeabilised cells. Digitonin permeabilises the plasma membrane of trypanosomatids, but crucially, leaves the glycosomes and mitochondria intact and fully functional, allowing them to be probed with compartment-specific ATP-yielding substrates. Digitonin-permeabilised PF T. brucei were probed with succinate, which is readily transported across the PF T. brucei mitochondrial membrane by the dicarboxylic acid carrier and can yield only oxidative phosphorylation-derived ATP through the FoF1-ATP synthase (complex V).
Fig 5 Inhibition of ATP production in digitonin-permeabilsed cells. (A-C) Digitonin-permeabilised PF T. brucei were probed with substrates in the presence of inhibitors and resulting ATP production quantified by bioluminescence assay. See experimental section for details. Inhibitors were used at saturating concentrations to ensure that relevant enzyme activities were ablated. Key: NS, no substrate; NI, no inhibitor; SHAM, salicylhydroxamic acid (TAO inhibitor at 100 μM); Rotenone (complex I inhibitor at 100 μM); Malonate (complex II inhibitor at 5 mM); AA, antimycin A (complex III inhibitor at 200 μM); OA, oligomycin A (complex V inhibitor at 200 μM); DNP, 2,4-dinitrophenol (protonophore at 1 mM); Comp.1, compound 1 at 200 μM. Background relative light units (RLU) were subtracted from measurements and % ATP production normalised to the no inhibitor control. Data were averaged from three independent experiments, each performed in quadruplicate. Error bars show standard deviations. T-tests were performed against no inhibitor controls (black asterisks) and compound 1 (grey open circles) and significance values presented: p < 0.00005 (*** / °°°), p < 0.0005 (** / °°), p < 0.005 (* / °). (A) Succinate was used as a substrate to generate ATP solely through oxidative phosphorylation (OxPhos). Oxidative phosphorylation inhibitors malonate, AA, OA and DNP virtually eliminated all ATP production. […] (B) α-ketoglutarate yields 40% ATP through substrate-level phosphorylation (SubPhos) and 60% through oxidative phosphorylation. Malonate, AA, OA and DNP inhibit oxidative phosphorylation, but not substrate-level phosphorylation. […] (C) Gly-3P acts as an alternative entry site to the electron transport chain yielding ATP through oxidative phosphorylation and the glycosome (GlyPhos). Malonate has no effect, as it acts at a different entry point. AA, OA and DNP inhibit oxidative phosphorylation, but not glycosomal phosphorylation.
ATP production assays were carried out in duplicate, and three independent assays were conducted. Cells were digitonin-permeabilised as previously described. Briefly, cells were washed in PBS and permeabilised for 5 min at a density of 1x10^8 cells/mL in SoTE buffer (20 mM Tris.HCl (pH 7.5), 2 mM EDTA pH 7.5, 600 mM sorbitol) supplemented with 0.015% (w/v) digitonin. Permeabilised cells were pelleted at 5000 g for 3 min at 4°C and suspended to 8.4x10^7 cells/mL in ATP assay buffer (20 mM Tris.HCl (pH 7.4), 15 mM KH2PO4, 0.6 M sorbitol, 10 mM MgSO4, 2.5 mg/mL fatty acid-free BSA.
ATP production assays were carried out in 75 μl volumes in 96-well plates with a final PF T. brucei cell density of 6.7 x 10^7 cells/mL as previously reported. […] B-THP-Ts, antimycin A (AA) and oligomycin A (OA) were used at 200 μM, Dinitrophenol (DNP) at 1 mM, malonate at 5 mM, rotenone at 100 μM and salicylhydroxamic acid (SHAM) at 100 μM. 59.25 μL digitonin-permeabilised cells (prepared above) were added to 0.75 μl inhibitor dissolved in DMSO (or 0.75 μL DMSO without inhibitor for no inhibitor control) and incubated for 10 min to allow inhibitors to take effect. Substrate was added to 2.5 mM and incubated for 10 min. Reactions were started with the addition of ADP to 60 μM and incubated at RT for 30 min. […]

[2] = tested on: cellular ATP production in PF T. brucei; test: ATP monitoring in live PF cells (proline as sole carbon source, bioluminescence); format: cell-based, Trypanosoma brucei; conditions: 2 h, normalised to no inhibitor control
Description: We first set out to determine if B-THP-T compounds affected cellular ATP levels. PF T. brucei were incubated in buffered PBS with/without proline as the sole carbon source and various inhibitors for 2 h. Cells were harvested and their ATP content was determined by bioluminescence assay. Two ETC inhibitors were used as positive control: malonate is a competitive inhibitor of mitochondrial complex II and prevents the […] of succinate to fumarate and entry of electrons to the ETC; and antimycin A (AA) is a mitochondrial complex III inhibitor, which prevents the transfer of electrons to cytochrome c and ubiquinone recycling. […] Compound 1 inhibited ATP production in a dose-response manner to similar levels (by 55 ± 6%), supporting the hypothesis from pull-down data that its target is involved in the ATP production pathway from proline.
Fig 4 B-THP-Ts decrease cellular ATP levels. PF T. brucei cells were incubated in buffered PBS with/without proline (as sole carbon source) and various inhibitors (concentrations indicated) incubated for 2 h, after which cells were harvested and cellular ATP levels were monitored by bioluminescence assay. Key: NS, no substrate; NI, no inhibitor control; Malonate (complex II inhibitor) AA, antimycin A (AA, complex III inhibitor). Background relative light units (RLU) were subtracted from measurements and % ATP production normalised to the no inhibitor control. Data were averaged from two independent experiments, each performed in duplicate (n = 4). Error bars show standard deviations. […]
Effects of compounds on proline metabolism were determined using a methodology adapted from Podolec et al. Briefly, glucose-free-conditioned PF T. brucei cells were washed into buffered PBS and incubated in 200 μl volumes with inhibitors for 10 min. […] Supernatants containing metabolic end-products and citrate standard were analysed to evaluate effects on proline metabolism (see below), while the ATP content of cells was determined as follows. […] ATP content was determined as above.

[3] = glycerol-3-phosphate as substrate, 30 min, compound 1, AA, OA 200 μM, DNP 1 mM
[4] = 30 min, compound 1, AA, OA 200 μM, DNP 1 mM, malonate 5 mM, rotenone, SHAM 100 μM

| Structure (SMILES) | Inhibition of ATP production from Gly-3P [1, 3] | Effect on ATP production from succinate [1, 4] | Inhibition of cellular ATP production [2] | Effect on ATP production from Gly-3P ([1]; glycerol-3-phosphate as substrate, 30 min, malonate 5 mM, rotenone, SHAM 100 μM) | IC50 ([1]; Trypanosoma brucei, 0.5 h, read-out: IC50 against oxidative phosphorylation (ATP production), Gly-3P as substrate, digitonin-permeabilised PF T. brucei, Gly-3P, 30 min incubation) | IC50 ([1]; Trypanosoma brucei, 0.5 h, read-out: IC50 against oxidative phosphorylation (ATP production), succinate as substrate, digitonin-permeabilised PF T. brucei, succinate, 30 min incubation) | IC50 ([1]; read-out: IC50 against oxidative phosphorylation (ATP production), Gly-3P as substrate, digitonin-permeabilised PF T. brucei, Gly-3P, 30 min incubation) | IC50 ([1]; read-out: IC50 against oxidative phosphorylation (ATP production), succinate as substrate, digitonin-permeabilised PF T. brucei, succinate, 30 min incubation) | Inhibition of ATP production from α-ketoglutarate ([1]; α-ketoglutarate as substrate, 30 min, compound 1, AA, OA 200 μM, DNP 1 mM, malonate 5 mM) |
| --- | --- | --- | --- | --- | --- | --- | --- | --- | --- |
| CCCCCC[C@H]1C(=O)O[C@H](C)[C@H](NC(=O)c2cccc(NC=O)c2O)C(=O)O[C@@H](C)[C@@H]1OC(=O)CC(C)C [antimycin A] | 75 ± 14% | almost abolished ATP production | 71 ± 9% |  |  |  |  |  |  |
| O=C(O)CC(=O)O [malonate] |  | completely eliminated all ATP production | 62 ± 15% | no effect |  |  |  |  |  |
| CCCCCC[C@H]1CCC[C@@H](Cn2cc([C@@H]3CCC[C@H](CCCCO)O3)nn2)O1 [Compound 1] | 82 ± 16% | decreased ATP production from succinate to similar levels | 55 ± 6% |  | 39.2 ± 4.6 µM | 57.3 ± 14.5 µM | 39 ± 5 µM | 57 ± 15 µM | 67 ± 13% |
